For data set [1], the target named is T1, hKv1.5 channel (Homo sapiens, UniProt P22460).
T1 construct: expressed in transfected cells; host or cells: mouse Ltk- cells (pMSVneo vector, G418 selection)
In words: Block of hKv1.5 channel currents expressed in Ltk-cells (whole cell patch clamp). The note with it: for Hill value: from concentration-response curves using the Hill equation; for IC50 / type of hKv1.5 block / effect on the hKv1.5 channel currents: hKv1.5 expressed in Ltk-cells; for IC50: steady-state current at end of +50 mV depolarizing pulse, holding -80 mV; for type of hKv1.5 block: FIGS. 1a to 1e; for effect on the hKv1.5 channel currents: FIGS. 1a to 1d. Type of data set: cell-based. The method, then: Cell line selectively expressing a specific cardiac K^+ channel gene was prepared according to the method described in the thesis (Yang, et al., Inhibition of cardiac potassium currents by the vesnarinone analog OPC-18790: comparison with quinidine and dofetilide. J Pharmacol Exp Ther. 1997, 280: 1170-1175; Kwak, et al., Phosphorylation is required for alteration of Kv1.5 K^+ channel function by the Kvbeta 1.3 subunit. J Biol Chem 1999, 274: 25355-25361).
First, cDNAs for human cardiac K^+ channel genes such as hKv 1.5 and HERG were subcloned into pMSVneo which contain dexamethasone-inducible murine mammary tumor virus promoter controlling transcription of the inserted cDNA and a gene conferring neomycin resistance driven by the SV40 early promotor. The cDNA-containing expression vector was transfected into mouse Ltk-cells with lipofectamine. After 24 hours, the cells selection with […] of G418 was performed for 2 weeks or until discrete foci formed. Individual foci were isolated, maintained in 0.25 μg/ml of G418, and screened by Norhtern analysis and electrophysiological analysis. Transfected cells were cultured in Dulbeco's modified Eagle medium (DMEM) supplemented with 10% horse serum and 0.25 μg/ml of G418, under 5% CO2. Transiently transfected cells were cultured in DMEM media supplemented with only 10% horse serum, differently from stable cell lines.
Currents in human atrial myocytes and cell lines were recorded by using the whole cell configuration of the gigaohm-seal patch clamp techniques (Kwak, et al., Phosphorylation is required for alteration of Kv1.5 K^+ channel function by the Kvbeta 1.3 subunit. J Biol Chem 1999, 274: 25355-25361). First, electrical signals were amplified with a patch clamp amplifier (Axon Instruments, Axopatch-1D, Foster, USA). Currents were digitized by a signal converter (Digidata 1200, Axon Instruments) and stored on the hard disk of a computer. The micropipette with a resistance of 1˜2MΩ (Kimax-51, 1.5=14 1.8×10 mm) for current recording, was pulled out by a 2-stage pipette puller (Narishige, PP-83). The intracellular pipette-filling solution for whole cell mode contained 100 mM KCl, 10 mM HEPES, 5 mM K4BAPTA, 5 mM K2ATP and 1 mM MgCl2 (pH 7.2). The extracellular solution contained 130 mM NaCl, 4 mM KCl, 1.8 mM CaCl2, 1 mM MgCl2, 10 mM HEPES and 10 mM glucose (pH 7.35).
The current traces were recorded with a depolarizing pulse of +50 mV from a holding potential of −80 mV, followed by a repolarizing pulse of −50 mV in the Ltk-cells. To observe the concentration-dependent block of hKv1.5 channel currents by each compound, steady-state currents taken at the end of the depolarizing pulse of +50 mV were normalized to the control obtained in the absence of each compound
FIG. 1e is concentration-response curves showing the relative steady-state currents obtained at the end of the depolarizing pulse against the concentration of each compound. Data were fitted with a Hill equation.
IC50 values (50% inhibitory concentration, μM) of compounds 1˜14 on the hKv1.5 channel currents were determined, and Hill values were calculated from the concentration-response curves of the respective compounds using the Hill equation.

Data set [2] relates to rabbit atrial tissue. As to the kind of experiment: Frequency-dependent effects on action potentials of rabbit atrial tissue (APD90). Type of data set: cell-based. The note with it: varied stimulus frequencies, FIG. 5c; compared to chelidonine. The method, then:
Action potentials in rabbit atrial tissue were recorded according to the method described in thesis by Kwak, et al. (A newly synthesized benzopyran derivatives, activates the cardiac ATP-sensitive K^+ channel. J Pharmacol Exp Ther 1995, 275: 807-812).
Male New Zealand white rabbits weighing about 2 kg were stunned with a blow on the head and hearts were rapidly excised and transferred to a dissection bath filled with Tyrode's solution saturated with 97% O2 and 3% CO2 gas mixture and each dissected tissue was mounted horizontally in a narrow channel of a tissue chamber and continuously superfused with the Tyrode's solution at 37° C. The action potentials were elicited by stimulating the cardiac cells with square pulses (1˜5 Hz, 1-ms duration, 20-30% above threshold voltage) by a stimulator. […] Tracings on the oscilloscope screen were photographed on a 35-mm film and also recorded on a physiograph (RS 3400, Gould, Cleveland, Ohio). APD90 was used for the comparison of action potential durations. APD90 represents the action potential duration at 90% repolarization, relative to the action potential duration at maximum 100% depolarization. Images on the oscilloscope screen were captured on Polaroid camera.
We tested whether the effect of chelidonine on action potentials of rabbit atrial myocytes are frequency-dependent or not.
The relative action potential durations were normalized to the APD90 value in the absence of chelidonine at each frequency. At the stimulus frequency of 1, 2, 3, 4 and 5 Hz, 1 μM chelidonine increased APD90 by 13.0±8.1% (n=5), 14.5±7.9% (n=5), 16.5±2.2% (n=5) 28.2±0.4% (n=5) or 33.0±0.3 1% (n=5) of the control APD90 in the absence of chelidonine at each frequency, respectively.

Data set [3] relates to mouse. As to conditions: in vivo, cited from earlier work.

Where two headings read alike, the source gives them in different places.

T1 sequence (P22460 whole entry): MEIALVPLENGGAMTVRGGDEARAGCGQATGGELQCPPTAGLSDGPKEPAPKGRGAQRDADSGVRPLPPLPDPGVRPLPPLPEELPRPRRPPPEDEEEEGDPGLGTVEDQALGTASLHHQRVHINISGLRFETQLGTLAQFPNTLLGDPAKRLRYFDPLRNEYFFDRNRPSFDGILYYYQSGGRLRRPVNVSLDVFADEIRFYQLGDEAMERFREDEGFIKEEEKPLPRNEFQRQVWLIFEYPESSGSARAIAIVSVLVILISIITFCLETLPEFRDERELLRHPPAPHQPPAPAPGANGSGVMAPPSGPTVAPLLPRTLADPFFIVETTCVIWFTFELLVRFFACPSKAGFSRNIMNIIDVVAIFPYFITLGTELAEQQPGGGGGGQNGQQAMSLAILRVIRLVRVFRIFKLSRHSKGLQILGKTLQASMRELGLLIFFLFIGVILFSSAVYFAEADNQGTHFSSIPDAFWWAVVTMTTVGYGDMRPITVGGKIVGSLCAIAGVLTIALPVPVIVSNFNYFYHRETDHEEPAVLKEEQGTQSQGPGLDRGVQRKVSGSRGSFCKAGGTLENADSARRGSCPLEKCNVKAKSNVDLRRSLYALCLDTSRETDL

In data set [1], `CN1Cc2c(ccc3c2OCO3)[C@H]2[C@@H](OS(C)(=O)=O)Cc3cc4c(cc3[C@H]21)OCO4` [Compound 10, {[5bR-(5bα,6β,12bα)]-5b,6,7,12b,13, 14-hexahydro-13-methyl[1,3]benzodioxolo[5,6c]-1,3-dioxolo[4,5-i]phenanthridin-6-yl}-methanesulfonate] returned a Hill value of 1.20 and an IC50 of 31.3 ± 3.5 µM.

In the case of `CN1Cc2c(ccc3c2OCO3)[C@H]2[C@@H](OC(=O)c3ccccc3)Cc3cc4c(cc3[C@H]21)OCO4` [Compound 5, {[5bR-(5bα,6β,12bα)]-5b,6,7,12b,13, 14-hexahydro-13-methyl[1,3]benzodioxolo[5,6c]-1,3-dioxolo[4,5-i]phenanthridin-6-yl}-benzoate], the “action potential duration prolongation” value in data set [2] is recorded as “increased the action potential durations in the similar manner as chelidonine, but to a lesser extent”. Also, in data set [1], the Hill value is given as 1.18; the “type of hKv1.5 block” value is listed as “showed the tonic blocking effects”; the “effect on the hKv1.5 channel currents” value is “concentration-dependent inhibitory effects”; the midpoint of inhibition, the IC50, lay at 29.3 ± 4.2 µM.

Consider `CC(=O)O[C@H]1Cc2cc3c(cc2[C@@H]2[C@H]1c1ccc4c(c1CN2C)OCO4)OCO3` [Compound 4, {[5bR-(5bα,6β,12bα)]-5b,6,7,12b,13, 14-hexahydro-13-methyl[1,3]benzodioxolo[5,6c]-1,3-dioxolo[4,5-i]phenanthridin-6-yl}-acetate], for which the “action potential duration prolongation” value in data set [2] is reported as “increased the action potential durations in the similar manner as chelidonine, but to a lesser extent”. Moreover, in data set [1], the Hill value is 1.34, the “type of hKv1.5 block” value is “predominantly blocked the open ion channels”, the “effect on the hKv1.5 channel currents” value is on record as “concentration-dependent inhibitory effects” and inhibition was half-maximal at 11.3 ± 3.3 µM (IC50).

In data set [1], `CN1Cc2c(ccc3c2OCO3)[C@H]2[C@@H](OCc3ccccc3)Cc3cc4c(cc3[C@H]21)OCO4` [Compound 3, [5bR-(5bα,6β,12bα)]-5b,6,7,12b,13, 14-hexahydro-6-benzyloxy-13-methyl[1,3]benzodioxolo[5,6c]-1,3-dioxolo[4,5-i]phenanthridine] came in with a Hill value of 1.37 and a concentration for half-maximal inhibition (IC50) of 59.3 ± 3 µM.

`CN1Cc2c(ccc3c2OCO3)[C@H]2[C@@H](OP(=O)(Oc3ccccc3)Oc3ccccc3)Cc3cc4c(cc3[C@H]21)OCO4` [Compound 9, {[5bR-(5bα,6β,12bα)]-5b,6,7,12b,13, 14-hexahydro-13-methyl[1,3]benzodioxolo[5,6c]-1,3-dioxolo[4,5-i]phenanthridin-6-yl}-diphenylphosphate]: in data set [1], the Hill value is on record as 1.26.

Regarding `Cc1ccc(S(=O)(=O)O[C@H]2Cc3cc4c(cc3[C@@H]3[C@H]2c2ccc5c(c2CN3C)OCO5)OCO4)cc1` [Compound 11, {[5bR-(5bα,6β,12bα)]-5b,6,7,12b,13, 14-hexahydro-13-methyl[1,3]benzodioxolo[5,6c]-1,3-dioxolo[4,5-i]phenanthridin-6-yl}-4-methylbenzenesulfonate], in data set [1], the Hill value amounted to 1.19 and the concentration for half-maximal inhibition (IC50) was determined as 29.6 ± 3.7 µM.

For `C[n+]1cc2c3c(ccc2c2ccc4cc5c(cc4c21)OCO5)OCO3` [Compound 14, 13-methyl[1,3]benzodioxolo[5,6c]-1,3-dioxolo[4,5-i]phenanthridinium], the “action potential duration prolongation” value in data set [2] was “increased the action potential durations in the similar manner as chelidonine, but to a lesser extent”. Further, the toxicity in data set [3] (iv) is recorded as 15.9 mg/kg. For the same compound, the toxicity in data set [3] (sc) is listed as 102.0 mg/kg. Also, in data set [1], the Hill value stood at 1.39, the “type of hKv1.5 block” value is “slowed the channel activation”, the “effect on the hKv1.5 channel currents” value is “concentration-dependent inhibitory effects” and the IC50 was 13 ± 3.8 µM.

Regarding `CO[C@H]1Cc2cc3c(cc2[C@@H]2[C@H]1c1ccc4c(c1CN2C)OCO4)OCO3` [Compound 2, [5bR-(5bα,6β,12bα)]-5b,6,7,12b,13, 14-hexahydro-6-methoxy-13-methyl[1,3]-benzodioxolo[5,6c]-1,3-dioxolo[4,5-i]phenanthridine], in data set [1], the Hill value turned out to be 1.29 and the half-inhibitory concentration (IC50) is 45.2 ± 4.1 µM.

Turning to `CN1Cc2c(ccc3c2OCO3)C2=CCc3cc4c(cc3[C@H]21)OCO4` [Compound 7, (12bR)-7,12b,13,14-tetrahydro-13-methyl[1,3]-benzodioxolo[5,6c]-1,3-dioxolo[4,5-i]phenanthridine], in data set [1], the Hill value worked out at 0.98 and 19.9 ± 3.5 µM corresponded to half-maximal inhibition (IC50).

For `CN1Cc2c(ccc3c2OCO3)-c2ccc3cc4c(cc3c21)OCO4` [Compound 6, (12bR)-13,14-dihydro-13-methyl [1,3]benzodioxolo[5,6c]-1,3-dioxolo[4,5-i]phenanthridine], in data set [1], the Hill value is recorded as 1.09 and the midpoint of inhibition, the IC50, lay at 26.4 ± 3.9 µM.

In data set [1], `CN1Cc2c(ccc3c2OCO3)[C@H]2CCc3cc4c(cc3[C@H]21)OCO4` [Compound 8, [5bR-(5bα,6β,12bα)]-5b,6,7,12b,13, 14-hexahydro-13-methyl[1,3] benzodioxolo[5,6c]-1,3-dioxolo[4,5-i]phenanthridine] showed a Hill value of 1.38 and a concentration for half-maximal inhibition (IC50) of 65.6 ± 4.2 µM.

In data set [1], `CN1Cc2c(ccc3c2OCO3)[C@H]2[C@@H](OC(N)=O)Cc3cc4c(cc3[C@H]21)OCO4` [Compound 12, {[5bR-(5bα,6β,12bα)]-5b,6,7,12b,13, 14-hexahydro-13-methyl[1,3]benzodioxolo[5,6c]-1,3-dioxolo[4,5-i]phenanthridin-6-yl}-carbamate] displayed a Hill value of 1.12 and an IC50 of 1.9 ± 1 µM.

In data set [1], `CN1Cc2c(ccc3c2OCO3)[C@@]2(C)[C@@H](O)Cc3cc4c(cc3[C@@H]12)OCO4` [Compound 13, [5bR-(5bα,6β,12bα)]-5b,6,7,12b,13, 14-hexahydro-5b,13-dimethyl[1,3]-benzodioxolo[5,6c]-1,3-dioxolo[4,5-i] phenanthridin-6-ol] returned a Hill value of 1.34.

Source of the values: US6887882B2, “Pharmaceutical compositions comprising chelidonine or derivatives thereof” (priority 2002, dated 2005).
